According to PMC8805316, “NanoBRET in C. elegans illuminates functional receptor interactions in real time” (BMC Molecular and Cell Biology, 2022):
Residues, ends and D or L forms follow the SMILES beside them. No end group written: not given here. *: point of attachment. 5TAMRA = CN(C)c1ccc2c(c1)Oc1cc(N(C)C)ccc1C21OC(=O)c2cc(C(=O)*)ccc21

Assays:
[1] = target: T1, Nluc::NPR-11 (Caenorhabditis elegans, UniProt Q18179); test: biochemical; type: binding, C. elegans
T1 construct: expressed in transfected cells; host or cells: transgenic C. elegans (extrachromosomal array, npr-11 knockout background), incised young adult worms
Procedure: (§1) All measurements were conducted using synchronized young adult worms (1 day post L4). Individuals were washed twice with HBSS (Hanks’ balanced salt solution with 25 mM HEPES, pH 7.4, 37 °C) and the number of worms/ μl was calculated.
(§2) For luminescence measurements of intact worms, animals (1; 10; 50; 100 or 500) were directly transferred into the wells of a white flat-bottom 384-well plate in 50 μl HBSS buffer. Worms to be cut were pre-washed with M9 + 0.1% Tween to avoid sticking of worms to the dish and subsequently transferred in 2 ml of HBSS. Incisions were made in the middle of the body with a scalpel blade and worms were immediately afterwards transferred with a glass pipette into HBSS buffer on ice. For mechanically cracking, a worm suspension was homogenized in tubes with 150 μl HBSS and six glass beads (Ø = 3 mm) using with a Precellys homogenizer (Bertin instruments, France) for 40 s at 5000 rpm. Samples were placed on ice until further usage.
For BRET binding assays in vivo, the nanoluciferase (Nluc) was applied as energy donor and either peptides labeled with the TAM fluorophore or the mNeonGreen fluorescent protein fused to a receptor served as acceptor.
30 Nluc-expressing worms with incisions in 50 μl BRET buffer were incubated with dissolving buffer or peptide solutions of final concentrations ranging from 0.05–10 μM in a 384-well plate. During a 25 min incubation with gentle shaking, 10 μl Nano-Glo Live Cell Reagent (N2011, Promega, USA) of a 5x stock were added according to manufacturer’s instructions after 15 min to each well. Competition-binding assays were performed similarly, but additionally, unlabeled peptide (final concentrations 0.016–10 μM) was pipetted into each well and 5 μl of a 10x stock Nano-Glo Live cell reagent was applied after 15 min.
Luminescence (L) and fluorescence (F) were detected with a microplate plate reader (Tecan Spark) using the following filter set: donor = 430–470 nm, acceptor = 550–700 nm with 1000 ms integration time. BRET was calculated by dividing F values by L values. For each experiment, the background signal of donor-only cells was subtracted, such that the BRET ratio at 0 μM ligand equals 0.00. In Fig. 3B (left) and Fig. 3D, the mean of n = 4 (NPR-11) or n = 3 (LAT-1) independent, individually background-corrected single experiments is presented.

[2] = target: T2, NPR-11 (Caenorhabditis elegans, UniProt Q18179); test: cAMP reporter gene assay, transfected HEK293 cells (Fig. S3B); type: cell-based, C. elegans; set-up: expressed in transfected cells; host or cells: HEK293 cells, co-transfected with reporter plasmid pGL4.29 [luc2P/CRE/Hygro]
T2 sequence (Q18179 1-402): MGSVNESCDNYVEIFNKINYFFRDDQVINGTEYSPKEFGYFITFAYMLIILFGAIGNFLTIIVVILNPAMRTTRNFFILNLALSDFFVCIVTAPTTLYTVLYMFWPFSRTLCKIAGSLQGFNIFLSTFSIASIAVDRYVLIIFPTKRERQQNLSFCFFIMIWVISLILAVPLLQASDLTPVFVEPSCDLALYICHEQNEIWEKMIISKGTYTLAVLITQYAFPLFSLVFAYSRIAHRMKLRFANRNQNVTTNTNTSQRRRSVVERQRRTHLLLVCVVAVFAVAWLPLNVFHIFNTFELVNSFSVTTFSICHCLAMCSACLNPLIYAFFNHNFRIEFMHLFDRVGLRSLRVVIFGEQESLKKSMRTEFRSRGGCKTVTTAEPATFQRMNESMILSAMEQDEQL
Procedure: All in vitro experiments were carried out using either HEK293 cells (Homo sapiens, embryonic kidney, DSMZ (German Collection of Microorganisms and Cell Cultures) ACC 305) or COS-7 cells (African green monkey, cercopithecus aethiops, kidney, DSMZ (German Collection of Microorganisms and Cell Cultures) ACC 60). HEK293 cells were kept in Dulbecco’s Modified Eagle’s Medium (DMEM) with Ham’s F-12 (v/v) and 15% (v/v) heat-inactivated fetal calf serum (FCS), while COS-7 cells were cultured in DMEM with 10% (v/v) FCS and 1% (v/v) Penicillin-Streptomycin. All cells were kept at 37 °C under a humidified atmosphere (5% CO2).
NPR-11 activation was read out in the Gi/o pathway by a cAMP reporter gene assay in transiently transfected HEK293 cells as described previously. Briefly, HEK293 cells were grown to 70% confluency and transiently co-transfected with the receptor plasmid (2 μg) and the reporter gene plasmid pGL4.29 [luc2P/CRE/Hygro] (Promega; 2 μg) with MetafectenePro (Biontex). Cells were then re-seeded into 384-well plates. On the next day, the medium was removed, and the cells were stimulated with peptide solution (20 μl) containing 5 μM forskolin (stimulating intracellular cAMP levels) in DMEM and incubated for 4 h. Luciferase substrate OneGlo in lysis buffer (Promega) was added and incubated for 5 min. Luminescence was measured in a microplate reader (Tecan Spark). […]

[3] = target: T1, Nluc::NPR-11; test: biochemical; type: binding, C. elegans; remark: listed apart in the source
Procedure: as §1
as §2, with “usage. […]” for “usage.”
Luminescence (L) and fluorescence (F) were detected with a microplate plate reader (Tecan Spark) using the following filter set: donor = 430–470 nm, acceptor = 550–700 nm with 1000 ms integration time. BRET was calculated by dividing F values by L values. […]

[4] = system: NPR-11::Nluc; test: Enhanced bystander BRET in vivo, NPR-11::Nluc and CAAX::mNG (Fig. 4C); set-up: species or system C. elegans
Procedure: Luminescence levels depended on the used strain, reaching (without ligand) approximately 2000 AU in Nluc::npr-11 animals and up to 32,000 AU in Nluc::lat-1 expressing worms. For enhanced bystander BRET analyses, 30 cut worms (APR716 and APR718) in 50 μl HBSS buffer were incubated for 10 min with 10 μl of Nano-Glo Live Cell Reagent (5x stock). Luminescence and fluorescence were measured once prior to peptide stimulation. Afterwards, FLP-34-1 (final concentration 5 μM) or H2O with 0.5% BSA and 2.5% DMSO as control were added to each well and luminescence and fluorescence was measured over the course of 80 min. The acceptor filter for this setting was altered to 505–605 nm, while the donor filter remained at 430–470 nm, as before.

[5] = target: T2, NPR-11; conditions: read-out: inhibition binding constant Ki; TAM-FLP-34-1 as fluorescent tracer; ref [35]; cited from earlier work

## CC[C@H](C)[C@H](NC(=O)[C@H](C)NC(=O)[C@H](CO)NC(=O)[C@H](C)NC(=O)[C@H](Cc1ccccc1)NC(=O)[C@@H](NC(=O)[C@H](CO)NC(=O)[C@@H](NC(=O)[C@H](CC(=O)O)NC(=O)[C@H](C)NC(=O)c1ccc2c(c1)C(=O)OC21c2ccc(N(C)C)cc2Oc2cc(N(C)C)ccc21)[C@@H](C)CC)[C@@H](C)O)C(=O)N[C@@H](CC(N)=O)C(=O)N[C@@H](CC(N)=O)C(=O)N[C@@H](C)C(=O)NCC(=O)N[C@@H](CCCNC(=N)N)C(=O)N[C@@H](CC(C)C)C(=O)N[C@@H](CCCNC(=N)N)C(=O)N[C@@H](Cc1ccc(O)cc1)C(N)=O [TAM-FLP-34-1] (5TAMRA-ADISTFASAINNAGRLRY-NH2)
[1]
  Kd: 1400 nM
[2]
  EC50: 0.5 nM

## ADISTFASAINNAGRLRY-NH2 [FLP-34-1]
[3]
  Ki: 1100 nM
[4]; 5 μM FLP-34-1
  time after which BRET increases again: > 70 min
[4]; 5 μM FLP-34-1 vs untreated controls
  change of bystander BRET signal over time: decrease of BRET signal
[5]
  Ki: 107 nM
[2]
  EC50: 2.3 nM
